Test results taken from patent US20190388360A1, “PHARMACEUTICAL PATCH COMPRISING LIDOCAINE AND DICLOFENAC FOR TREATING NEUROPATHIC PAIN” (TEIKOKU SEIYAKU CO., LTD., priority 2017, published 2019).

Experiments:
[1] = system: CFA-hindpaw inflammation; assay: CFA-hindpaw inflammation, paw pressure test (CFA-PPT), intraperitoneal injection; type: in vivo, rat; conditions: ip; Lidocaine dose range 10 mg/kg to 46.4 mg/kg, Diclofenac dose range 21.5 mg/kg to 100 mg/kg
Experimental: An interaction study was performed as a single dose study in the CFA-hindpaw inflammation, paw pressure test.
In comparative example 1 and inventive examples 1 to 4 described below, a compound or combination of compounds was administered by intraperitoneal injection (FIGS. 1 to 9).
The pain was measured by pressing a pointer on the inflamed paw. The pointer exerts a force, increasing at a constant rate, monitored by a linear scale. Pain is deemed to be perceived one the rat starts to withdraw the paw. This value (withdrawal threshold in gram) is the pressure at which the animal feels pain (cut-off 450 g). Efficacy of the test compounds is expressed as a percent change of withdrawal threshold after compound administration to the pre-value (withdrawal threshold before compound administration).

[2] = system: CFA-induced paw edema / mechanical-hyperalgesia; assay: CFA-hindpaw inflammation, paw pressure test (CFA-PPT), topical application to the paw as ointment or solution; type: in vivo, male albino rats; conditions: Lidocaine 30 mg/ml to 60 mg/ml, Diclofenac 40 mg/ml to 80 mg/ml
Experimental: In comparative example 2 and inventive examples 5 to 8 as described below, a compound or combination of compounds was administered topically to the paw by means of an ointment or solution (FIGS. 10 to 18).
The efficacy was tested when a compound or a compositions of compounds was administered topically as an ointment or a solution. The study was performed on male albino rats (150-180 g body weight) to which an edema of paw was induced by injection of Complete Freunds Adjuvant (CFA). CFA is a composition of inactivated and dried Myobacteria tuberculoses, emulsified in mineral oil which is used as an immunopotentiator causing a painful reaction that lasts 7-8 days after subcutaneous injection.
The studies of comparative example 2 and inventive examples 5 to 8 were performed according to the following procedure: 50 μL of CFA were injected sub plantar into the right hind paw, inducing mechanical-hyperalgesia after 24 hours. […]
The pain was measured by pressing a pointer on the inflamed paw. The pointer exerts a force, increasing at a constant rate, monitored by a linear scale. […] Efficacy of the test compounds is expressed as a percent change of withdrawal threshold after compound administration to the pre-value (withdrawal threshold before compound administration).

| SMILES | efficacy when administered alone [1] | efficacy when topically administered alone [2] |
| --- | --- | --- |
| O=C(O)Cc1ccccc1Nc1c(Cl)cccc1Cl [Diclofenac, 2-(2,6-dichloranilino) phenylacetic acid] | dose dependent efficacy | dose dependent efficacy |
| CCN(CC)CC(=O)Nc1c(C)cccc1C [Lidocaine, 2-(diethylamino)-N-(2,6-dimethylphenyl)acetamide] | dose dependent efficacy | dose dependent efficacy |
